The values below come from US10752584B2 (EMORY UNIVERSITY, priority 2016, dated 2020).

Common to all, as to type: cell-based
The nature of series [1]: Cellular toxicity assay in human PBM cells. Conditions: human, human PBM cells, read-out: Cytotoxicity. The protocol: (§1) The toxicity of the compounds was assessed in Vero, human PBM, CEM (human lymphoblastoid), MT-2, and HepG2 cells, as described previously (see Schinazi R. F., Sommadossi J.-P., Saalmann V., Cannon D. L., Xie M.-Y., Hart G. C., Smith G. A. & Hahn E. F. Antimicrob. Agents Chemother. 1990, 34, 1061-67). Cycloheximide was included as positive cytotoxic control, and untreated cells exposed to solvent were included as negative controls. The cytotoxicity IC50 was obtained from the concentration-response curve using the median effective method described previously (see Chou T.-C. & Talalay P. Adv. Enzyme Regul. 1984, 22, 27-55; Belen'kii M. S. & Schinazi R. F. Antiviral Res. 1994, 25, 1-11).

A short description of series [2]: Cellular toxicity assay in Vero cells. Particulars: African green monkey, read-out: Cytotoxicity. The protocol:
as §1

Series [3] is described as follows: Cellular toxicity assay in HepG2 cells. Particulars: human, read-out: Cytotoxicity. The protocol:
as §1

The test system of a further series is wild type HBV. Briefly: Anti-HBV assay in AD-38 cell line. Conditions: Hepatitis B virus, AD-38 cells, HBV in culture supernatant; for EC50: read-out: Anti-HBV activity EC50; for EC90: read-out: Anti-HBV activity EC90. The protocol:
The anti-HBV activity of the compounds was determined by treating the AD-38 cell line carrying wild type HBV under the control of tetracycline (see Ladner S. K., Otto M. J., Barker C. S., Zaifert K., Wang G. H., Guo J. T., Seeger C. & King R. W. Antimicrob. Agents Chemother. 1997, 41, 1715-20). Removal of tetracycline from the medium [Tet (−)] results in the production of HBV. The levels of HBV in the culture supernatant fluids from cells treated with the compounds were compared with that of the untreated controls. Control cultures with tetracycline [Tet (+)] were also maintained to determine the basal levels of HBV expression. 3TC was included as positive control.
The median effective concentrations (EC50) ranges of several of the compounds described herein against HBV are shown in Table 3: […]

The nature of series [4]: Cellular toxicity assay in CEM cells. Conditions: human, CEM lymphoblastoid cells, read-out: Cytotoxicity. The protocol:
as §1

`Cc1c(C(=O)C(=O)NCc2nccn2C)c(C)n(C)c1C(=O)Nc1ccc(F)c(F)c1` [Compound 48, N-(3,4-difluorophenyl)-1,3,5-trimethyl-4-(2-(((1-methyl-1H-imidazol-2-yl)methyl)amino)-2-oxoacetyl)-1H-pyrrole-2-carboxamide]: the CC50 in series [1] was more than 100 µM; in series [2], more than 100 µM; in series [3], 84 µM; in series [4] it was 27 µM. For the same compound, in the series on wild type HBV, the EC50 is 0.001 to 0.009 µM. Further, the EC90 in the series on wild type HBV is 0.01 to 0.09 µM.
As to `Cc1c(C(=O)C(=O)Nc2ccccn2)c(C)n(C)c1C(=O)Nc1ccccc1` [Compound 52, 1,3,5-trimethyl-4-(2-oxo-2-(pyridin-2-ylamino)acetyl)-N-phenyl-1H-pyrrole-2-carboxamide], the CC50 in series [1] was more than 100 µM; in series [2], more than 100 µM; in series [3] it was more than 100 µM; in series [4], 50 µM. The EC50 in the series on wild type HBV fell in the range of 0.01 to 0.09 µM. Also, the EC90 in the series with wild type HBV was 0.1 to 0.9 µM.
For the compound `C#CCNC(=O)C(=O)c1c(C)c(C(=O)Nc2cccc(OC(F)(F)F)c2)n(C)c1C` [Compound 55, 1,3,5-trimethyl-4-(2-oxo-2-(prop-2-yn-1-ylamino)acetyl)-N-(3-(trifluoromethoxy)phenyl)-1H-pyrrole-2-carboxamide], the CC50 is more than 100 µM in series [1], 15 µM in series [2], 88 µM in series [3] and 38 µM in series [4]. Moreover, in the series with wild type HBV, the EC50 was 0.1 to 0.9 µM. Also, the EC90 with wild type HBV was in the range of 1 to 9 µM.
On to `C#CCNC(=O)C(=O)c1c(C)c(C(=O)NC(C)(C)c2ccc(F)c(F)c2)n(C)c1C` [Compound 56, N-(2-(3,4-difluorophenyl)propan-2-yl)-1,3,5-trimethyl-4-(2-oxo-2-(prop-2-yn-1-ylamino)acetyl)-1H-pyrrole-2-carboxamide], for which the CC50 in series [1], in series [2], in series [3] and in series [4] was more than 100 µM throughout. Also, the EC50 in the series with wild type HBV was 1 to 9 µM.
As for `C#CCNC(=O)C(=O)c1c(C)c(C(=O)NC2(c3ccc(F)c(F)c3)CC2)n(C)c1C` [Compound 57, N-(1-(3,4-difluorophenyl)cyclopropyl)-1,3,5-trimethyl-4-(2-oxo-2-(prop-2-yn-1-ylamino)acetyl)-1H-pyrrole-2-carboxamide], the CC50 in series [1], in series [2], in series [3] and in series [4] was more than 100 µM throughout. In addition, the EC50 in the series on wild type HBV was 1 to 9 µM.
Consider `C#CCNC(=O)C(=O)c1c(C)c(C(=O)Nc2ccccc2)n(C)c1C` [Compound 58, 1,3,5-trimethyl-4-(2-oxo-2-(prop-2-yn-1-ylamino)acetyl)-N-phenyl-1H-pyrrole-2-carboxamide], for which the CC50 in series [1], in series [2], in series [3] and in series [4] was more than 100 µM each time. The EC50 in the series on wild type HBV lay within 0.01 to 0.09 µM. Moreover, the EC90 with wild type HBV lay in the range of 0.1 to 0.9 µM.
With `C#CCNC(=O)C(=O)c1c(C)c(C(=O)Nc2ccc(S(F)(F)(F)(F)F)cc2)n(C)c1C` [Compound 59, 1,3,5-trimethyl-4-(2-oxo-2-(prop-2-yn-1-ylamino)acetyl)-N-(4-(pentafluorosulfanyl)phenyl)-1H-pyrrole-2-carboxamide], the CC50 in series [1] is 44 µM; in series [2], 12 µM; in series [3], 43 µM; in series [4] it was 3 µM. In addition, the EC50 with wild type HBV lay in the range of 1 to 9 µM.
With `C#CCNC(=O)C(=O)c1c(C)c(C(=O)Nc2cccc(S(F)(F)(F)(F)F)c2)n(C)c1C` [Compound 60, 1,3,5-trimethyl-4-(2-oxo-2-(prop-2-yn-1-ylamino)acetyl)-N-(3-(pentafluorosulfanyl)phenyl)-1H-pyrrole-2-carboxamide], the CC50 was 86 µM in series [1], 82 µM in series [2], more than 100 µM in series [3] and 23 µM in series [4]. In addition, the EC50 with wild type HBV lay within 0.1 to 0.9 µM. Moreover, the EC90 with wild type HBV lay in the range of 0.1 to 0.9 µM.
Turning to `C#CCNC(=O)C(=O)c1c(C)c(C(=O)Nc2ccc(F)nc2)n(C)c1C` [Compound 61, N-(6-fluoropyridin-3-yl)-1,3,5-trimethyl-4-(2-oxo-2-(prop-2-yn-1-ylamino)acetyl)-1H-pyrrole-2-carboxamide], the CC50 in series [1], in series [2], in series [3] and in series [4] was more than 100 µM throughout. The EC50 in the series with wild type HBV was in the range of 0.1 to 0.9 µM. For the same compound, in the series with wild type HBV, the concentration for an effect of 90% (EC90) lay in the range of 0.1 to 0.9 µM.
For `C#CCNC(=O)C(=O)c1c(C)c(C(=O)Nc2cncnc2)n(C)c1C` [Compound 62, 1,3,5-trimethyl-4-(2-oxo-2-(prop-2-yn-1-ylamino)acetyl)-N-(pyrimidin-5-yl)-1H-pyrrole-2-carboxamide], the CC50 in series [1], in series [2], in series [3] and in series [4] was more than 100 µM each time. Besides, the EC50 with wild type HBV was in the range of 1 to 9 µM. In addition, in the series on wild type HBV, the EC90 fell in the range of 1 to 9 µM.
For `C#CCNC(=O)C(=O)c1c(C)c(C(=O)Nc2ccncc2)n(C)c1C` [Compound 63, 1,3,5-trimethyl-4-(2-oxo-2-(prop-2-yn-1-ylamino)acetyl)-N-(pyridin-4-yl)-1H-pyrrole-2-carboxamide], the CC50 in series [1], in series [2], in series [3] and in series [4] was more than 100 µM each time. In addition, in the series on wild type HBV, the EC50 is 0.1 to 0.9 µM. Further, in the series with wild type HBV, the EC90 lay in the range of 1 to 9 µM.
Turning to `C#CCNC(=O)C(=O)c1c(C)c(C(=O)Nc2ccc(F)c(C)c2)n(C)c1C` [Compound 64, N-(4-fluoro-3-methylphenyl)-1,3,5-trimethyl-4-(2-oxo-2-(prop-2-yn-1-ylamino)acetyl)-1H-pyrrole-2-carboxamide], the CC50 in series [1] is more than 100 µM; in series [2], 96 µM; in series [3], more than 100 µM; in series [4] it was 18 µM. Further, in the series on wild type HBV, the EC50 was 0.0001 to 0.0009 µM. Besides, the EC90 in the series on wild type HBV was in the range of 0.001 to 0.009 µM.
Regarding `C#CCNC(=O)C(=O)c1c(C)c(C(=O)Nc2ccc(F)c(Cl)c2)n(C)c1C` [Compound 66, N-(3-chloro-4-fluorophenyl)-1,3,5-trimethyl-4-(2-oxo-2-(prop-2-yn-1-ylamino)acetyl)-1H-pyrrole-2-carboxamide], the CC50 in series [1] was more than 100 µM; in series [2] it was 70 µM; in series [3], 83 µM; in series [4] it was 52 µM. Moreover, the EC50 with wild type HBV is 0.001 to 0.009 µM. Moreover, the EC90 in the series on wild type HBV lay within 0.01 to 0.09 µM.
Regarding `Cc1c(C(=O)C(=O)Nc2ccccc2)c(C)n(C)c1C(=O)Nc1ccc(F)c(F)c1` [Compound 69, N-(3,4-difluorophenyl)-1,3,5-trimethyl-4-(2-oxo-2-(phenylamino)acetyl)-1H-pyrrole-2-carboxamide], the CC50 was more than 100 µM in series [1], 48 µM in series [2], 59 µM in series [3] and more than 100 µM in series [4]. In addition, in the series with wild type HBV, the EC50 is 0.001 to 0.009 µM. For the same compound, the EC90 in the series on wild type HBV lay in the range of 0.01 to 0.09 µM.
Turning to `Cc1c(C(=O)C(=O)N2CCOCC2)c(C)n(C)c1C(=O)Nc1ccc(F)c(F)c1` [Compound 72, N-(3,4-difluorophenyl)-1,3,5-trimethyl-4-(2-morpholino-2-oxoacetyl)-1H-pyrrole-2-carboxamide], the CC50 amounted to 30 µM in series [1], 51 µM in series [2], 100 µM in series [3] and 14 µM in series [4]. For the same compound, the EC50 in the series with wild type HBV was 0.1 to 0.9 µM. In addition, in the series with wild type HBV, the EC90 fell in the range of 0.1 to 0.9 µM.
In the case of `C=CCNC(=O)C(=O)c1c(C)c(C(=O)Nc2ccc(F)c(F)c2)n(C)c1C` [Compound 75, 4-(2-(allylamino)-2-oxoacetyl)-N-(3,4-difluorophenyl)-1,3,5-trimethyl-1H-pyrrole-2-carboxamide], the CC50 is more than 100 µM in series [1], 33 µM in series [2], more than 100 µM in series [3] and 66 µM in series [4]. Also, the EC50 in the series on wild type HBV is 0.001 to 0.009 µM. Further, the EC90 in the series with wild type HBV is 0.01 to 0.09 µM.
For the compound `Cc1c(C(=O)C(=O)Nc2nccs2)c(C)n(C)c1C(=O)Nc1ccc(F)c(F)c1` [Compound 78, N-(3,4-difluorophenyl)-1,3,5-trimethyl-4-(2-oxo-2-(thiazol-2-ylamino)acetyl)-1H-pyrrole-2-carboxamide], the CC50 in series [1] is more than 100 µM; in series [2] it was more than 100 µM; in series [3], 84 µM; in series [4], 15 µM. Moreover, the EC50 in the series with wild type HBV fell in the range of 0.001 to 0.009 µM. Moreover, the EC90 in the series with wild type HBV was 0.01 to 0.09 µM.
Turning to `Cc1c(C(=O)C(=O)NCC#N)c(C)n(C)c1C(=O)Nc1ccc(F)c(F)c1` [Compound 81, 4-(2-((cyanomethyl)amino)-2-oxoacetyl)-N-(3,4-difluorophenyl)-1,3,5-trimethyl-1H-pyrrole-2-carboxamide], the CC50 in series [1] is 30 µM; in series [2] it was more than 100 µM; in series [3], 71 µM; in series [4], 33 µM. Moreover, the EC50 in the series on wild type HBV lay within 0.001 to 0.009 µM. Further, in the series with wild type HBV, the EC90 was in the range of 0.1 to 0.9 µM.
